Reference: patent US9938269B2, “Inhibitor compounds of phosphodiesterase type 10A” (ABBVIE INC., priority 2011, dated 2018)
Where a name gives a salt, the structure may show the parent alone.

What was measured:
[1] = Determination of the microsomal half-life, rat liver microsomes; details: for Rat mCl (mikrosomal clearance): rat liver microsomes, 0.5 μM test substance, 0.25 mg microsomal protein, pH 7.4, 37° C., NADPH; for microsomal CLint at 0.5 μM: rat, liver microsomes, pH 7.4
Experimental: (§1) The test substances were incubated in a concentration of 0.5 μM as follows:
(§2) 0.5 μM test substance are preincubated together with liver microsomes from different species (from rat, human or other species) (0.25 mg of microsomal protein/10 in 0.05 M potassium phosphate buffer of pH 7.4 in microtiter plates at 37° C. for 5 min. The reaction is started by adding NADPH (1 mg/mL). After 0, 5, 10, 15, 20 and 30 min., 50 μl aliquots are removed, and the reaction is immediately stopped and cooled with the same volume of acetonitrile. The samples are frozen until analyzed. The remaining concentration of undegraded test substance is determined by MSMS. The half-life (T½) is determined from the gradient of the signal of test substance/unit time plot, it being possible to calculate the half-life of the test substance, assuming first order kinetics, from the decrease in the concentration of the compound with time. The microsomal clearance (mCl) is calculated from mCl=ln 2/T½/(content of microsomal protein in mg/ml)×1000 [ml/min/mg]

[2] = Determination of the microsomal half-life, human liver microsomes; details: for microsomal CLint at 0.5 μM: human, liver microsomes, pH 7.4
Experimental: as §1, §2

| SMILES | Rat mCl (mikrosomal clearance) [1] | Human mCl (mikrosomal clearance) ([2]; human liver microsomes, 0.5 μM test substance, 0.25 mg microsomal protein, pH 7.4, 37° C., NADPH) | microsomal CLint at 0.5 μM [2] | microsomal CLint at 0.5 μM [1] |
| --- | --- | --- | --- | --- |
| C[C@@H]1CN(c2cccc3c2C(=O)N(CCc2ccc4ccccc4n2)C3)CC[C@@H]1c1ccc(OC(F)(F)F)cc1F.O=C(O)C(F)(F)F [Example 147, 7-[(3S,4S)-4-(2-Fluoro-4-trifluoromethoxy-phenyl)-3-methyl-piperidin-1-yl]-2-(2-quinolin-2-yl-ethyl)-2,3-dihydro-isoindol-1-one trifluororacetate] | + (+: 100-220 μl min^−1 mg^−1) | ∘ (∘ not avialable or >220 μl min^−1 mg^−1) | – | – |
| CN1CC2CN(c3cccc4c3C(=O)N(CCc3ccc5ccccc5n3)C4)CC2C1 (centres unmarked) [Example 154, 7-(5-Methyl-hexahydro-pyrrolo[3,4-c]pyrrol-2-yl)-2-(2-quinolin-2-yl-ethyl)-2,3-dihydro-isoindol-1-one] | −∘ | – | < 100 µL/min/mg | – |
| CC1(O)CCC(Nc2ccc(-c3cccc4c3C(=O)N(CCc3ccc5ccccc5n3)C4)cc2Cl)CC1 (centres unmarked) [Example 155, 7-[3-Chloro-4-(4-hydroxy-4-methyl-cyclohexylamino)-phenyl]-2-(2-quinolin-2-yl-ethyl)-2,3-dihydro-isoindol-1-one hydrochloride] | – | – | > 220 µL/min/mg | 100 to 220 µL/min/mg |
| CCN1CCN(C2CCN(c3cccc4c3C(=O)N(CCc3ccc5ccccc5n3)C4)CC2)CC1 [Example 157, 7-[4-(4-Ethyl-piperazin-1-yl)-piperidin-1-yl]-2-(2-quinolin-2-yl-ethyl)-2,3-dihydro-isoindol-1-one trifluoroacetate] | – | – | > 220 µL/min/mg | < 100 µL/min/mg |
| O=C1c2c(cccc2N2CCN(c3cccnc3)CC2)CN1CCc1ccc2ccccc2n1 [Example 159, 7-(4-Pyridin-3-yl-piperazin-1-yl)-2-(2-quinolin-2-yl-ethyl)-2,3-dihydro-isoindol-1-one trifluoroacetate] | – | – | > 220 µL/min/mg | 100 to 220 µL/min/mg |
| CN1CCN(Cc2ccc(-c3cccc4c3C(=O)N(CCc3ccc5ccccc5n3)C4)cc2)CC1 [Example 167, 7-[4-(4-Methyl-piperazin-1-ylmethyl)-phenyl]-2-(2-quinolin-2-yl-ethyl)-2,3-dihydro-isoindol-1-one trifluoroacetate] | – | – | > 220 µL/min/mg | 100 to 220 µL/min/mg |
| Cc1ccc(COc2cccc3c2C(=O)N(CCc2ccc4ccccc4n2)C3)cn1 [Example 172, 7-(6-Methyl-pyridin-3-ylmethoxy)-2-(2-quinolin-2-yl-ethyl)-2,3-dihydro-isoindol-1-one] | – | – | 100 to 220 µL/min/mg | 100 to 220 µL/min/mg |
| CC1CCN(c2cccc3c2C(=O)N(CCc2ccc4ccccc4n2)C3)CC1N (centres unmarked) [Example 174, 7-(3-Amino-4-methyl-piperidin-1-yl)-2-(2-quinolin-2-yl-ethyl)-2,3-dihydro-isoindol-1-one] | – | – | < 100 µL/min/mg | 100 to 220 µL/min/mg |
| CN1CCN(Cc2cccc3c2C(=O)N(CCc2ccc4ccccc4n2)C3)CC1 [Example 177, 7-(4-Methyl-piperazin-1-ylmethyl)-2-(2-quinolin-2-yl-ethyl)-2,3-dihydro-isoindol-1-one] | – | – | < 100 µL/min/mg | < 100 µL/min/mg |
| O=C1c2c(cccc2N2CC3CNCC3C2)CN1CCc1ccc2ccccc2n1 (centres unmarked) [Example 192, 7-(Hexahydro-pyrrolo[3,4-c]pyrrol-2-yl)-2-(2-quinolin-2-yl-ethyl)-2,3-dihydro-isoindol-1-one] | – | – | < 100 µL/min/mg | > 220 µL/min/mg |
| Cn1nccc1-c1ccnc2c1C(=O)N(CCc1nc3ccccn3n1)C2 [Example 213, 4-(2-Methyl-2H-pyrazol-3-yl)-6-(2-[1,2,4]triazolo[1,5-a]pyridin-2-yl-ethyl)-6,7-dihydro-pyrrolo[3,4-b]pyridin-5-one trifluoroacetate] | – | – | < 100 µL/min/mg | < 100 µL/min/mg |
| O=C1c2c(cccc2N2CC[C@@H]3NCC[C@@H]3C2)CN1CCc1ccc2ccccc2n1 [Example 220, 7-(3aR,7aS)-Octahydro-pyrrolo[3,2-c]pyridin-5-yl-2-(2-quinolin-2-yl-ethyl)-2,3-dihydro-isoindol-1-one trifluoroacetate] | – | – | 100 to 220 µL/min/mg | > 220 µL/min/mg |
| CN1CCN(c2ccnc3c2C(=O)N(CCc2nc4ccccc4n2C)C3)CC1 [Example 226, 6-[2-(1-Methyl-1H-benzoimidazol-2-yl)-ethyl]-4-(4-methyl-piperazin-1-yl)-6,7-dihydro-pyrrolo[3,4-b]pyridin-5-one trifluoroacetate] | – | – | < 100 µL/min/mg | < 100 µL/min/mg |
| CC1CN(c2cccc3c2C(=O)N(CCc2ccc4ccccc4n2)C3)CCO1 (centres unmarked) [Example 228, 7-(2-Methyl-morpholin-4-yl)-2-(2-quinolin-2-yl-ethyl)-2,3-dihydro-isoindol-1-one trifluoroacetate] | – | – | > 220 µL/min/mg | 100 to 220 µL/min/mg |
| CN(C)CC1CN(c2cccc3c2C(=O)N(CCc2ccc4ccccc4n2)C3)CCO1 (centres unmarked) [Example 229, 7-(2-Dimethylaminomethyl-morpholin-4-yl)-2-(2-quinolin-2-yl-ethyl)-2,3-dihydro-isoindol-1-one trifluoroacetate] | – | – | < 100 µL/min/mg | < 100 µL/min/mg |
| O=C1c2c(cccc2N2CCOCC2)CN1CCc1nc2ccccn2n1 [Example 231, 7-Morpholin-4-yl-2-(2-[1,2,4]triazolo[1,5-a]pyridin-2-yl-ethyl)-2,3-dihydro-isoindol-1-one] | – | – | < 100 µL/min/mg | < 100 µL/min/mg |

| SMILES | Rat mCl (mikrosomal clearance) [1] | Human mCl (mikrosomal clearance) ([2]; human liver microsomes, 0.5 μM test substance, 0.25 mg microsomal protein, pH 7.4, 37° C., NADPH) | microsomal CLint at 0.5 μM [2] | microsomal CLint at 0.5 μM [1] |
| --- | --- | --- | --- | --- |
| O=C1c2c(cccc2N2CCS(=O)(=O)CC2)CN1CCc1nc2ccccn2n1 [Example 232, 7-(1,1-Dioxothiomorpholin-4-yl)-2-(2-[1,2,4]triazolo[1,5-a]pyridin-2-yl-ethyl)-2,3-dihydro-isoindol-1-one] | – | – | < 100 µL/min/mg | < 100 µL/min/mg |
| CN1CCN(c2cccc3c2C(=O)N(CCc2nc4ccccn4n2)C3)CC1 [Example 233, 7-(4-Methyl-piperazin-1-yl)-2-(2-[1,2,4]triazolo[1,5-a]pyridin-2-yl-ethyl)-2,3-dihydro-isoindol-1-one] | – | – | < 100 µL/min/mg | < 100 µL/min/mg |
| COc1ccc(-c2cccc3c2C(=O)N(CCc2cn4ccccc4n2)C3)cc1 [Example 237, 2-(2-Imidazo[1,2-a]pyridin-2-yl-ethyl)-7-(4-methoxy-phenyl)-2,3-dihydro-isoindol-1-one] | – | – | 100 to 220 µL/min/mg | 100 to 220 µL/min/mg |
| O=C1c2cccc(-c3ccncc3)c2C(=O)N1CCc1ccc2ccccc2n1 [Example 249, 4-Pyridin-4-yl-2-(2-quinolin-2-yl-ethyl)-isoindole-1,3-dione dihydrochloride] | – | – | 100 to 220 µL/min/mg | > 220 µL/min/mg |
| CN1CCN(c2cccc3c2C(=O)N(CCc2nc4ccccc4n2C)C3)CC1 [Example 254, 2-[2-(1-Methyl-1H-benzoimidazol-2-yl)-ethyl]-7-(4-methyl-piperazin-1-yl)-2,3-dihydro-isoindol-1-one] | – | – | < 100 µL/min/mg | < 100 µL/min/mg |
| COc1ccc(N2CCN(C3CCN(C)CC3)CC2)c2c1CN(CCc1ccc3ccccc3n1)C2=O [Example 269, 4-Methoxy-7-[4-(1-methyl-piperidin-4-yl)-piperazin-1-yl]-2-(2-quinolin-2-yl-ethyl)-2,3-dihydro-isoindol-1-one di-trifluoroacetate] | – | – | < 100 µL/min/mg | < 100 µL/min/mg |
| CN1CCN(c2ccnc3c2C(=O)N(CCc2cn4ccccc4n2)C3)CC1 [Example 273, 6-(2-Imidazo[1,2-a]pyridin-2-yl-ethyl)-4-(4-methyl-piperazin-1-yl)-6,7-dihydro-pyrrolo[3,4-b]pyridin-5-one] | – | – | < 100 µL/min/mg | < 100 µL/min/mg |
| COCC1CN(c2cccc3c2C(=O)N(CCc2ccc4ccccc4n2)C3)CCO1 (centres unmarked) [Example 298, 7-(2-Methoxymethyl-morpholin-4-yl)-2-(2-quinolin-2-yl-ethyl)-2,3-dihydro-isoindol-1-one] | – | – | 100 to 220 µL/min/mg | 100 to 220 µL/min/mg |
| O=C1c2c(cccc2N2C[C@H]3CCCNC[C@H]3C2)CN1CCc1ccc2ccccc2n1 [Example 318, 7-(3aS,8aS)-Octahydro-pyrrolo[3,4-c]azepin-2-yl-2-(2-quinolin-2-yl-ethyl)-2,3-dihydro-isoindol-1-one trifluoroacetate] | – | – | 100 to 220 µL/min/mg | > 220 µL/min/mg |
| O=C1c2c(-c3cccnc3)ccnc2CN1CCc1cn2ccccc2n1 [Example 358, 6-(2-Imidazo[1,2-a]pyridin-2-yl-ethyl)-4-pyridin-3-yl-6,7-dihydro-pyrrolo[3,4-b]pyridin-5-one] | – | – | < 100 µL/min/mg | < 100 µL/min/mg |
| Cn1c(CCN2Cc3nccc(NC4COC4)c3C2=O)nc2ccccc21 [Example 359, 6-[2-(1-Methyl-1H-benzoimidazol-2-yl)-ethyl]-4-(oxetan-3-ylamino)-6,7-dihydro-pyrrolo[3,4-b]pyridin-5-one] | – | – | < 100 µL/min/mg | < 100 µL/min/mg |
| O=C1c2c(NC3COC3)ccnc2CN1CCc1cn2ccccc2n1 [Example 360, 6-(2-Imidazo[1,2-a]pyridin-2-yl-ethyl)-4-(oxetan-3-ylamino)-6,7-dihydro-pyrrolo[3,4-b]pyridin-5-one] | – | – | < 100 µL/min/mg | < 100 µL/min/mg |
| COc1ccc(NC2COC2)c2c1CN(CCc1cn3ccccc3n1)C2=O [Example 362, 2-(2-Imidazo[1,2-a]pyridin-2-yl-ethyl)-4-methoxy-7-(oxetan-3-ylamino)-2,3-dihydro-isoindol-1-one] | – | – | < 100 µL/min/mg | < 100 µL/min/mg |
| O=C1c2c(-c3ccncc3)ccnc2CN1CCc1cc2ccccc2o1 [compound 391, 6-[2-(Benzofuran-2-yl)ethyl]-4-(4-pyridyl)-7H-pyrrolo[3,4-b]pyridin-5-one] | – | – | < 100 µL/min/mg | < 100 µL/min/mg |
| Cc1nc(CCN2Cc3nccc(-c4ccncc4)c3C2=O)sc1C [compound 408, 6-[2-(4,5-Dimethylthiazol-2-yl)ethyl]-4-(4-pyridyl)-7H-pyrrolo[3,4-b]pyridin-5-one] | – | – | < 100 µL/min/mg | 100 to 220 µL/min/mg |
